Here are results for one molecule from patent US20110117038A1, “Dopa Oxidase Inhibitor, Skin-Lightening Agent and External Preparation for Skin” (Kao Corporation, priority 2009, published 2011).

Molecules are shown by their SMILES.

In the experiment the target is T1, dopa oxidase activity (tyrosinase) of human neonatal foreskin-derived melanocytes (Homo sapiens, UniProt P14679).
T1 construct: The cells were lysed for 3 hours at 4° C., and the dopa oxidase activity was measured; endogenous in cells; host or cells: human neonatal foreskin-derived melanocytes (primary), lysed with NP-40/SDS extraction buffer
T1 sequence (P14679 19-529): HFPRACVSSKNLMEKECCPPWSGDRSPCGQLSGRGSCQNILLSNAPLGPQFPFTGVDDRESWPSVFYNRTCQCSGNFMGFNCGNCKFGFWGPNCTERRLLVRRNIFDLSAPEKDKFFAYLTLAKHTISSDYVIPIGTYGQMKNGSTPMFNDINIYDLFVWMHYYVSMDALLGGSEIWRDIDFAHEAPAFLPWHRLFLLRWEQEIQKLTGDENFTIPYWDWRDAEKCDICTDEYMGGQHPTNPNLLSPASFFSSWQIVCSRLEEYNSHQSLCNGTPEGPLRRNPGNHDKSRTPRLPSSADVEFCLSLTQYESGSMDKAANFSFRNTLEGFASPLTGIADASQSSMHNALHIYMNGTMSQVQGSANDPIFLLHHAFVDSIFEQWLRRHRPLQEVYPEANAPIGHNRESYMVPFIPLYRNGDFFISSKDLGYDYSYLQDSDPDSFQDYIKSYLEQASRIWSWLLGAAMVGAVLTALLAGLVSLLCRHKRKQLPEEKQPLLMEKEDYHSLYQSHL
The experiment is described as follows: Measurement of dopa oxidase activity (MBTH method) in lysate of treated melanocytes. Format: cell-based. To be noted: read-out: Dopa oxidase activity (%).

Protocol: 100 μL of human neonatal foreskin-derived melanocytes were inoculated on each well of a 96-well plate to be a cell density of 1×10^4 cells/well. The medium used therein was Medium 254 to which HMGS (Human Melanocyte Growth Supplement) excluding PMA (all manufactured by Cascade Biologics Inc.) was added.
After culturing the cells for 24 hours, endothelin-1 (ET-1) which is a melanocyte activator, stem cell growth factor (SCF), α-melanocyte stimulating hormone (α-MSH), histamine and prostaglandin E2 (PGE2) were mixed and added to the each culture at a final concentration in medium of 10×10^−7 mol/m^3 in each. […]
The melanocytes which had been used in the measurement of the cell proliferation activity were washed with Phosphate-buffered saline (PBS) from which Ca^2+ and Mg^2+ had been eliminated, and 20 μL/well of an extraction buffer (0.1 M Tris-HCl (pH 7.2), 1% Nonidet P-40, 0.01% SDS, 100 μM phenylmethylsulfonyl fluoride (PMSF) and 1 μg/ml aprotinin) and 20 μL/well of an assay buffer (100 mM Sodium phosphate-buffer (pH 7.1) containing 4% dimethylformamide) were added to the cells. The cells were lysed for 3 hours at 4° C., and its dopa oxidase activity was measured. […]
Further, the values of the dopa oxidase activity are indicated as values relative to the absorbances of the instances where various plant extracts were not added. […]

Turning to `CC(=O)O[C@@H]1C[C@H](O)[C@@]23CO[C@@H](O)[C@]1(C)[C@@H]2C[C@@H](O)[C@]1(C)[C@@H]3C(=O)[C@H](OC(C)=O)[C@@]2(C)[C@H](c3ccoc3)C[C@H]3O[C@]321` [Toosendanin], the activity at 0.1 µM came out at 15%.
